Assay [1] can be described thus: Inhibition of [gamma-32P]-ATP binding to protein kinase C (1.5 ng) done for 10 min in pH 7.4 at 37 degree C with compound dissolved in DMSO using in In-Plate assay.
In assay [2] the target is T1, High affinity nerve growth factor receptor (Homo sapiens, UniProt P04629). Kind of assay: Inhibition of NGF-stimulated TrkA phosphorylation in NIH3T3 cells. The class given is cell-based.
Assay [3] addresses T1, High affinity nerve growth factor receptor. Briefly: Inhibition of baculovirus expressed human trkA.
The nature of assay [4]: Relative binding to PKC and TrkA.

T1 sequence (P04629 whole entry): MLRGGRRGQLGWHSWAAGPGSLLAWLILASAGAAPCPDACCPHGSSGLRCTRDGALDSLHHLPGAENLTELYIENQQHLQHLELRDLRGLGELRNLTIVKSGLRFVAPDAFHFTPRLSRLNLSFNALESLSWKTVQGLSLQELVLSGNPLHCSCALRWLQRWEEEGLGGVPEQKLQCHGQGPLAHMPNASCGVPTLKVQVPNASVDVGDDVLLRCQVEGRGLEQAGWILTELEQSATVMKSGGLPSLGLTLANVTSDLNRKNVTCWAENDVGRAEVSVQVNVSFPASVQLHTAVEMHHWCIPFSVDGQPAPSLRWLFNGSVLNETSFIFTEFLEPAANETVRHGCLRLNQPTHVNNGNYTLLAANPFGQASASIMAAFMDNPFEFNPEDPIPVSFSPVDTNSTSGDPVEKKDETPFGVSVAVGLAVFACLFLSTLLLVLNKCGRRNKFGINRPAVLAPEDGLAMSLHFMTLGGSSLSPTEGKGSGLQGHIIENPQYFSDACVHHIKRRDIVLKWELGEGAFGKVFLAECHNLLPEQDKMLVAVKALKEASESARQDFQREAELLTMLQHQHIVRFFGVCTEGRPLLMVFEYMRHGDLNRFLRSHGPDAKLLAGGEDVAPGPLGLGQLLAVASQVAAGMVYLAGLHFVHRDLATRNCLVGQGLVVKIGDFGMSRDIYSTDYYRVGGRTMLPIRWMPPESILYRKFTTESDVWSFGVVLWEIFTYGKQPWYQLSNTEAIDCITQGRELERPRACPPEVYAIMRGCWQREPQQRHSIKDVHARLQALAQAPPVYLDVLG

Take `C[C@]1(O)C[C@H]2O[C@]1(C)n1c3ccccc3c3c4c(c5c6ccccc6n2c5c31)C(=O)NC4`: the concentration for half-maximal inhibition (IC50) (commonly the point on the concentration scale where inhibition reaches its midpoint) is 0.85 µM in assay [1], under 0.01 µM in assay [2] and 0.003 µM in assay [3].
Take `CO[C@]1(CO)C[C@H]2O[C@]1(C)n1c3ccccc3c3c4c(c5c6ccccc6n2c5c31)C(=O)NC4`: the IC50 in assay [1] came to 0.114 µM; in assay [3], 0.0029 µM. Further, in assay [4], the Ratio was found to be 39.
With `COC(=O)[C@@]1(O)C[C@H]2O[C@]1(C)n1c3ccccc3c3c4c(c5c6ccccc6n2c5c31)C(=O)NC4` [K-252A], the IC50 in assay [1] was 0.25 µM.
On to `CC1(C)O[C@@H](n2c3ccccc3c3c4c(c5c6ccccc6[nH]c5c32)CNC4=O)C[C@]1(O)CO`, for which the IC50 in assay [1] amounted to 0.218 µM; in assay [3], 0.004 µM.
Take `COC(=O)[C@]1(O)C[C@H]2O[C@]1(C)n1c3ccccc3c3c4c(c5c6ccccc6n2c5c31)C(=O)NC4`: the concentration for half-maximal inhibition (IC50) in assay [1] came to 0.114 µM.
Consider `C[C@@]1(O)C[C@H]2O[C@]1(C)n1c3ccccc3c3c4c(c5c6ccccc6n2c5c31)C(=O)NC4`, for which the concentration for half-maximal inhibition (IC50) came to 0.31 µM in assay [1] and 0.02 µM in assay [3].
The corresponding values for `CC1(C)O[C@@H](n2c3ccccc3c3c4c(c5c6ccccc6[nH]c5c32)CNC4=O)C[C@@]1(O)CO` are 0.079 µM and 0.004 µM.
The matching figures for `C[C@]12O[C@H](C[C@@]1(O)C(N)=O)n1c3ccccc3c3c4c(c5c6ccccc6n2c5c31)CNC4=O`: 0.663 µM and 0.029 µM.

The record behind these values is ChEMBL document CHEMBL1139527, “Synthesis, modeling, and in vitro activity of (3'S)-epi-K-252a analogues. Elucidating the stereochemical requirements of the 3'-sugar alcohol on trkA tyrosine kinase activity” (J Med Chem, 2005).
